Measurements from ChEMBL document CHEMBL3797164, “Transfer of SAR information from hypotensive indazole to indole derivatives acting at α-adrenergic receptors: In vitro and in vivo studies” (Eur J Med Chem, 2016).

Legend:
[1] = biological target: T1, Adrenergic receptor alpha-1 (Rattus norvegicus, UniProt P15823+P23944+P43140); assay: Displacement of [3H]prazosine from Alpha-1 adrenergic receptor in Sprague-Dawley rat brain P2 membranes after […] by liquid scintillation counting
T1 sequence (P15823 whole entry): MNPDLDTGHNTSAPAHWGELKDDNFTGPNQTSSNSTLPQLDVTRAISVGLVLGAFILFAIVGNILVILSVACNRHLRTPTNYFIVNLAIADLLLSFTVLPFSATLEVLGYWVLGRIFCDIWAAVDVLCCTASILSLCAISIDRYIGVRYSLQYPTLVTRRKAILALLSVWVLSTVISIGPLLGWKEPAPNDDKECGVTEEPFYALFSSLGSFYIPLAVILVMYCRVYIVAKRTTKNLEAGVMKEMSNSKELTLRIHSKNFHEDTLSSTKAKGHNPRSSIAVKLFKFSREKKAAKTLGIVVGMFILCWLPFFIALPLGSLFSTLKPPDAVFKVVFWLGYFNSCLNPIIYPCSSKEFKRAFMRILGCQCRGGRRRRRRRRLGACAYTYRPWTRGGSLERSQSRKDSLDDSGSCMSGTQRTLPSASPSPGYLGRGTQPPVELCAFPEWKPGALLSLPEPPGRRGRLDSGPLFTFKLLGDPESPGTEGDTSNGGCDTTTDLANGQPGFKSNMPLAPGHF
T1 sequence (P23944 whole entry): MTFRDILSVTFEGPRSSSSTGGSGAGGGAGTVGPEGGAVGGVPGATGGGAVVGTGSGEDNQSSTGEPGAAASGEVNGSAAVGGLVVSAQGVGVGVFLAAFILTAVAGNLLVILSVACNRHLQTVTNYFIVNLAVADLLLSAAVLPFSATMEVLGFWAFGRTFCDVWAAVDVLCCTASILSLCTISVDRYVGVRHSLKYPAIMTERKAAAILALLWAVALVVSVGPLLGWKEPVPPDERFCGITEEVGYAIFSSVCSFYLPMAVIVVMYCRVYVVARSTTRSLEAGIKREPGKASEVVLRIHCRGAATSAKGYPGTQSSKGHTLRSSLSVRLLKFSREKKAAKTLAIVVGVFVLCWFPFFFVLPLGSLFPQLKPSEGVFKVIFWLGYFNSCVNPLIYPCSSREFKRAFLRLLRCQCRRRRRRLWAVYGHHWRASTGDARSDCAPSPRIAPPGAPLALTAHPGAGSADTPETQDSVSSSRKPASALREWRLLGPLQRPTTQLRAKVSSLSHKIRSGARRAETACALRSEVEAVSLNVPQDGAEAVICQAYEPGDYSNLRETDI
T1 sequence (P43140 whole entry): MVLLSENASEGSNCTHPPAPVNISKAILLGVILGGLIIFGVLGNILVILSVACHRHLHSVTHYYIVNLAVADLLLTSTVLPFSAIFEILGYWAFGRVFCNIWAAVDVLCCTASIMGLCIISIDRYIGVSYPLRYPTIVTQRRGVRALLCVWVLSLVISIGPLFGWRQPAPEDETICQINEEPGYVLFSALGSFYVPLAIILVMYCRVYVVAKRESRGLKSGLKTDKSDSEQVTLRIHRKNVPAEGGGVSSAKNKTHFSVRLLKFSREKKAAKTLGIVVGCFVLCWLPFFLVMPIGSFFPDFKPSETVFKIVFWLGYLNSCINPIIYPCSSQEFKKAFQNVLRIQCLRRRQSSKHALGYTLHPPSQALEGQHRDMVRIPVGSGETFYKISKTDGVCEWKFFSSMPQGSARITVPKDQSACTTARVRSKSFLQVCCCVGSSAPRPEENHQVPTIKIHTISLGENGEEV

[2] = biological target: T2, Adrenergic receptor alpha-2 (Homo sapiens, UniProt P08913+P18825+P18089); assay: Agonist activity at human recombinant Alpha-2 adrenergic receptor expressed in CHOK1 cells after 30 mins by [35S]GTPgammaS binding assay; format: functional, cell-based; settings: cho-k1
T2 sequence (P08913 whole entry): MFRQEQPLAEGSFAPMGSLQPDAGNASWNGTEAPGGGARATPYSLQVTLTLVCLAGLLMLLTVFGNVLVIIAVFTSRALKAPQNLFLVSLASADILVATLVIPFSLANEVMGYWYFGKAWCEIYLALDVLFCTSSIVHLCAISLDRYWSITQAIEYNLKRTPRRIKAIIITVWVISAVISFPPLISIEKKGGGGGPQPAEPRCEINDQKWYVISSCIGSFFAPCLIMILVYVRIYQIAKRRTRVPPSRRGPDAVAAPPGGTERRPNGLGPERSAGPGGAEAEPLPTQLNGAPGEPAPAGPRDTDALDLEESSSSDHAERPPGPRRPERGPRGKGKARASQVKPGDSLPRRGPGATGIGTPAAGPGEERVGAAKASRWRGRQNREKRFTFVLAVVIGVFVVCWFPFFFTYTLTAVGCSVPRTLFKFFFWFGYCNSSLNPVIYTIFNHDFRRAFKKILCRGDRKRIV
T2 sequence (P18825 whole entry): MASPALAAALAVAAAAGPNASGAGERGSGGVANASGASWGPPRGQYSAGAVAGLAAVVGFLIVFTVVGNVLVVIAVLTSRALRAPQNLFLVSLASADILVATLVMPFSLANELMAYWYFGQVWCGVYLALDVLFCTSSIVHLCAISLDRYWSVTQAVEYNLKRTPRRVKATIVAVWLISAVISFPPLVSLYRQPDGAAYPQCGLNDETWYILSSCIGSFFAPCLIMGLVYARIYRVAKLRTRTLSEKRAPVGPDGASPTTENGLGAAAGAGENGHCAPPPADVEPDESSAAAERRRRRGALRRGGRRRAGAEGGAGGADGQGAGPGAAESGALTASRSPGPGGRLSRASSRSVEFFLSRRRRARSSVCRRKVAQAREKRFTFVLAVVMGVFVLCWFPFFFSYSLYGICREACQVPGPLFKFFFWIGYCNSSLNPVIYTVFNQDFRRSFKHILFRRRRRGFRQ
T2 sequence (P18089 whole entry): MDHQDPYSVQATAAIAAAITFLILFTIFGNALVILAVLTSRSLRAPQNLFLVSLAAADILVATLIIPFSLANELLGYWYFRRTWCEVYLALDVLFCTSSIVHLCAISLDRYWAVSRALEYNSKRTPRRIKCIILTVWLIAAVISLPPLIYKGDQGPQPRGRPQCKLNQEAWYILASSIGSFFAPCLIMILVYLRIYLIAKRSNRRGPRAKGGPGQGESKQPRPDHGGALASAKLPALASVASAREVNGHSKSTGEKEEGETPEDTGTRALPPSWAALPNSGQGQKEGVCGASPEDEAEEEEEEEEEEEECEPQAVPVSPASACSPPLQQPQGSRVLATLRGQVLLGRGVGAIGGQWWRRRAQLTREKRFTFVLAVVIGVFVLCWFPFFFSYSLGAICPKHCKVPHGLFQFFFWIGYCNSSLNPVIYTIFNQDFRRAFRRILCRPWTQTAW

Rattus norvegicus [3] = assay: Neurotoxicity in Sprague-Dawley rat assessed as induction of hind limb flexion at 1000 to 1500 ug/kg, ip after 15 to 30 mins by LORR test; format: toxicity, organism-based, Hindlimb; settings: in vivo
Rattus norvegicus [4] = assay: Neurotoxicity in Sprague-Dawley rat assessed as exploratory behaviour changes at 10 to 2000 ug/kg, ip after 30 mins by LORR test; format: toxicity, organism-based; settings: in vivo, 0.5 h

SMILES | Ki [1] [µM] | EC50 [2] [µM] | Activity (Rattus norvegicus [3]) | Activity (Rattus norvegicus [4])
Cl.c1ccc2c(c1)ccn2CC1=NCCN1 | 0.0614 |  |  | 
Br.Cc1cccc2ccn(CC3=NCCN3)c12 | 0.02497 | 0.0079 |  | 
Cl.Clc1cccc2ccn(CC3=NCCN3)c12 | 0.00682 | 3.6 | Toxic | Non-toxic
